In patent US20150216823A1, “COMPOSITIONS FOR THE TREATMENT OF MIGRAINE HEADACHES AND METHODS THEREOF” (priority 2012, published 2015):
Like-named read-outs stand apart in the source and are kept apart here. One block for each compound: values may come before it.

What was measured:
[1] = Capsaicin solubilization experiments with varying Tween 80, visual assessment; assay type: physicochemical; details: capsaicin at 0.05-0.055% concentration
Excerpt: Therefore, it was decided to evaluate the use of the concentrated capsaicin (a white powder) as a replacement for the oily oleoresin capsicum extract. However, as capsaicin powder is hydrophobic it was necessary to determine what quantity of surfactant was necessary to maintain the capsaicin in solution. A study was therefore conducted to determine the required concentration of a chosen surfactant (Tween 80) to achieve and maintain complete dissolution of the capsaicin (assuming a capsaicin concentration of 0.054% w/v). In other words, the level of surfactant required for dissolving the capsaicin in an aqueous vehicle was determined as described below.
A series of experiments were undertaken to prepare various samples with the addition of a set quantity of capsaicin powder (equivalent to 0.05% in solution) and varying concentrations of Tween 80.
Sample 1: 1% Tween 80 was prepared according to the following protocol: […]; Tween 80; […]; and 10 mL stock solution. The sample was sonicated for 2 minutes and then visually assessed. […]
Sample 2: 0.5% Tween 80 was prepared according to the following protocol: […] Tween 80; 0.011 g capsaicin; and 10 mL stock solution. The sample was sonicated for 2 minutes and then visually assessed. […]
All samples were left overnight and visually assessed again on the following day. […]

[2] = cited from earlier work

required concentration of Tween 80 in the stock solution to achieve complete dissolution of capsaicin [1]: 0.5 % w/v
SMILES: COc1cc(CNC(=O)CCCC/C=C/C(C)C)ccc1O [capsaicin]

SMILES: NC(=O)CC[C@@H]1NC(=O)[C@H](Cc2ccccc2)NC(=O)[C@H](Cc2ccc(O)cc2)NC(=O)CCSSC[C@@H](C(=O)N2CCC[C@H]2C(=O)N[C@H](CCCN=C(N)N)C(=O)NCC(N)=O)NC(=O)[C@H](CC(N)=O)NC1=O [desmopressin]
bio-availability of the nasal spray formulation relative to the nasal drop formulation ([2]; in vivo): two to three times higher

SMILES: CCC(=O)O[C@]1(C(=O)SCF)[C@H](C)C[C@H]2[C@@H]3C[C@H](F)C4=CC(=O)C=C[C@]4(C)[C@@]3(F)[C@@H](O)C[C@@]21C [fluticasone propionate]
bio-availability of the nasal spray formulation relative to the nasal drop formulation ([2]; intranasal administration): about eight times higher
